What was measured:
Test in all cases: KINOMEscan competition binding
Details in all cases: compound 10.0 µM
[1] = biological target: MAP3K6 (human) (UniProt O95382)
[2] = biological target: PLK1 (human) (UniProt P53350)
[3] = biological target: MAPK8 (human) (UniProt P45983)
[4] = biological target: CSNK1G3 (human) (UniProt Q9Y6M4)
[5] = biological target: PRKD1 (human) (UniProt Q15139)
[6] = biological target: NTRK1 (human) (UniProt P04629)
[7] = biological target: SLK (human) (UniProt Q9H2G2)
[8] = biological target: PRKCD (human) (UniProt Q05655)
Chain of PRKCD (human) (Q05655 whole entry, looked up): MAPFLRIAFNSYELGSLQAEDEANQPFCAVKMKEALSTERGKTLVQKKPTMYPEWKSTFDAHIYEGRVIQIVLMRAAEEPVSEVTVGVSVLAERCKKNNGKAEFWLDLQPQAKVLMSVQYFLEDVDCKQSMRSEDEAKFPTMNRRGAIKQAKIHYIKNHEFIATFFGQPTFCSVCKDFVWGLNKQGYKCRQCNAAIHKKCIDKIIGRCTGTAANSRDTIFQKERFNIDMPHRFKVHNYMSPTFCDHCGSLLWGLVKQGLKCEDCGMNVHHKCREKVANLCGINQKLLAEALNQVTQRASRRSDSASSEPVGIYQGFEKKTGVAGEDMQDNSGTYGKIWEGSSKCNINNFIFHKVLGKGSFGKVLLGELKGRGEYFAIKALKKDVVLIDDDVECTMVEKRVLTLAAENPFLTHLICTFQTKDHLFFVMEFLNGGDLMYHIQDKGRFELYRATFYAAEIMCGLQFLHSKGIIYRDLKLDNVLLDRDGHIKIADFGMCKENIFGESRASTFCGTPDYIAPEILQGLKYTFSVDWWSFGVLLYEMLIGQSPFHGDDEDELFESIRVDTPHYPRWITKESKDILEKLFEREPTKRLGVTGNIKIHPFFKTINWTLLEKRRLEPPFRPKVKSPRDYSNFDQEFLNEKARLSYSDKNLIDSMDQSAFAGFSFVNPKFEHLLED

[9] = biological target: DYRK1A (human) (UniProt Q13627)
[10] = biological target: JAK3 JH1 catalytic (human) (UniProt P52333)
[11] = biological target: RIPK1 (human) (UniProt Q13546)
Chain of RIPK1 (human) (Q13546 whole entry, looked up): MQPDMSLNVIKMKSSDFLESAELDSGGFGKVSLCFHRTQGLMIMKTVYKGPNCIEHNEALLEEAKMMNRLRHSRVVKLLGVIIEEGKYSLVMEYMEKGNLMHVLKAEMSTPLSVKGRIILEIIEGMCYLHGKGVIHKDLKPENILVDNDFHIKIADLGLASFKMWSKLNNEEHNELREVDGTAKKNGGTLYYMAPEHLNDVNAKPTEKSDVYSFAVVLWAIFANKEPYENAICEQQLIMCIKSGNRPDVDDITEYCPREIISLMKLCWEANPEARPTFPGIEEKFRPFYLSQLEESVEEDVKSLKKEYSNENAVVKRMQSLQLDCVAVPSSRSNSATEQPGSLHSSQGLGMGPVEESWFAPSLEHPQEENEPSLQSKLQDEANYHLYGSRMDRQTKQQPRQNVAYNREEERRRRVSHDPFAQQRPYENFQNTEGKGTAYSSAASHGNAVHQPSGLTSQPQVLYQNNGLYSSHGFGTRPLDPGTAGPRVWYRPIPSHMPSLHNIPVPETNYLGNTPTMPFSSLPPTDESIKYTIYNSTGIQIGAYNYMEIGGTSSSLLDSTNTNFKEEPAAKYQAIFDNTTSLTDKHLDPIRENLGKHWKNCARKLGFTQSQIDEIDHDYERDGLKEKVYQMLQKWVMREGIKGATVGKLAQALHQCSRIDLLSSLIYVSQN

[12] = biological target: CSNK1G2 (human) (UniProt P78368)
[13] = biological target: CHEK2 (human) (UniProt O96017)
[14] = biological target: PAK7 (human) (UniProt Q9P286)
[15] = biological target: MAP4K1 (human) (UniProt Q92918)
[16] = biological target: SYK (human) (UniProt P43405)
[17] = biological target: CDKL1 (human) (UniProt Q00532)
[18] = biological target: TNNI3K (human) (UniProt Q59H18)
[19] = biological target: YES1 (human) (UniProt P07947)
[20] = biological target: CAMK2D (human) (UniProt Q13557)
[21] = biological target: DCLK1 (human) (UniProt O15075)
[22] = biological target: CIT (human) (UniProt O14578)
[23] = biological target: NTRK2 (human) (UniProt Q16620)
[24] = biological target: MAP3K1 (human) (UniProt Q13233)
[25] = biological target: STK4 (human) (UniProt Q13043)
[26] = biological target: RPS6KA6 KD2 (human) (UniProt Q9UK32)
[27] = biological target: CRK2 (P.falciparum) (UniProt P61075)
Chain of CRK2 (P.falciparum) (P61075 whole entry, looked up): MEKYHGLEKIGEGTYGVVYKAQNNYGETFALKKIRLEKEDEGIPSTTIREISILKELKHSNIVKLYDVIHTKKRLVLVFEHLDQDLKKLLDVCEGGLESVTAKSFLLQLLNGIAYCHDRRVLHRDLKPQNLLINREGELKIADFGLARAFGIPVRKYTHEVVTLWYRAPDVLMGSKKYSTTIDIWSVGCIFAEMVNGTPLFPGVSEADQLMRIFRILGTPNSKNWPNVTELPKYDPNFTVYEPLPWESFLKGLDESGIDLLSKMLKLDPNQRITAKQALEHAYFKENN

[28] = biological target: MARK3 (human) (UniProt P27448)
Chain of MARK3 (human) (P27448 whole entry, looked up): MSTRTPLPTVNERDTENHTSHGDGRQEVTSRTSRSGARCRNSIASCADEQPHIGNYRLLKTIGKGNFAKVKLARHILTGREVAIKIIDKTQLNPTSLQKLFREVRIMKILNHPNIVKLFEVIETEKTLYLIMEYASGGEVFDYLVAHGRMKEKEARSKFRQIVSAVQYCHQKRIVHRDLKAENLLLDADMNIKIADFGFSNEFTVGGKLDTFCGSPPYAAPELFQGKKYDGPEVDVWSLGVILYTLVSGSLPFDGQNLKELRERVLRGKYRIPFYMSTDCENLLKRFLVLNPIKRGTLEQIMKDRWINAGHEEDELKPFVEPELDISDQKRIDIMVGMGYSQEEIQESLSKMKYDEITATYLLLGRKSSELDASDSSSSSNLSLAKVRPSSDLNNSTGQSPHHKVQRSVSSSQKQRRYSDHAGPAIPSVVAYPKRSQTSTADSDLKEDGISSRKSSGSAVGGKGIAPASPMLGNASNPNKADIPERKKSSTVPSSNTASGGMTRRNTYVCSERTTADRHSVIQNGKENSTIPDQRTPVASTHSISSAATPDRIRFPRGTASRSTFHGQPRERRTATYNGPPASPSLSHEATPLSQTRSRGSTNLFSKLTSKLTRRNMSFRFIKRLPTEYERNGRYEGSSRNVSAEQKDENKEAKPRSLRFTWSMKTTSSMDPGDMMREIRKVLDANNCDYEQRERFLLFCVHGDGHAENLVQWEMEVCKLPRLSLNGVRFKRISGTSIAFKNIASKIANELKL

[29] = biological target: EPHB3 (human) (UniProt P54753)
[30] = biological target: PRKX (human) (UniProt P51817)
Chain of PRKX (human) (P51817 whole entry, looked up): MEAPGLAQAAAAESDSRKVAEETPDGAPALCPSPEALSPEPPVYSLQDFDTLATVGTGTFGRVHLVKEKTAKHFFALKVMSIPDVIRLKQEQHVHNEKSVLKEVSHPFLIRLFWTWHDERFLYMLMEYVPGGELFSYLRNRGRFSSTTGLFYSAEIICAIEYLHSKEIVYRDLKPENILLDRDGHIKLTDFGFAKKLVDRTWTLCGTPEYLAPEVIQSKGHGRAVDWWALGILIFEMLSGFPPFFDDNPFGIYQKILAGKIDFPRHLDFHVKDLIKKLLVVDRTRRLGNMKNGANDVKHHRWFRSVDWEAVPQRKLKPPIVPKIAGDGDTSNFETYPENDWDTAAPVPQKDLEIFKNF

[31] = biological target: ADCK4 (human) (UniProt Q96D53)
[32] = biological target: KDR (human) (UniProt P35968)
[33] = biological target: HIPK3 (human) (UniProt Q9H422)
[34] = biological target: IKBKB (human) (UniProt O14920)
Chain of IKBKB (human) (O14920 whole entry, looked up): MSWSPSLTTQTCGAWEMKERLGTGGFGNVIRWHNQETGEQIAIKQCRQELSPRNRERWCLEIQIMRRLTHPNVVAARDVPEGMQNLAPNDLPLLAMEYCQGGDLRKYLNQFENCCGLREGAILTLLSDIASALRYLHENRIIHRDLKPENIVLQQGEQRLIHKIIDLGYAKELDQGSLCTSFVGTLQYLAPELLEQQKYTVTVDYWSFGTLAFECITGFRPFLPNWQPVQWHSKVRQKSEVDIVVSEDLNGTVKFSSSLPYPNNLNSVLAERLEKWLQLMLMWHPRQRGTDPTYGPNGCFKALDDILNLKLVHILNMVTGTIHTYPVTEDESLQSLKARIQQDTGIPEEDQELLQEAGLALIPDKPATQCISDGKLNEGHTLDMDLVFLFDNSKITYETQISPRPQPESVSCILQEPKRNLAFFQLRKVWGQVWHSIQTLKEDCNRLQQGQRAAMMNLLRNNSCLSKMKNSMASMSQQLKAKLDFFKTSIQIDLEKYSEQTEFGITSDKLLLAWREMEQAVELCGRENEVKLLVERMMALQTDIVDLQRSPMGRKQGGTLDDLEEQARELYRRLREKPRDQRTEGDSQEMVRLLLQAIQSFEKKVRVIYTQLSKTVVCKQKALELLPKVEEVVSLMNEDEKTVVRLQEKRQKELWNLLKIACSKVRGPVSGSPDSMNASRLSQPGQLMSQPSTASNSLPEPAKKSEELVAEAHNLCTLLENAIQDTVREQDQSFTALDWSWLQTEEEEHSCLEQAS

[35] = biological target: PLK4 (human) (UniProt O00444)
[36] = biological target: LIMK1 (human) (UniProt P53667)
[37] = biological target: PRKCH (human) (UniProt P24723)
[38] = biological target: TLK2 (human) (UniProt Q86UE8)
[39] = biological target: EPHA1 (human) (UniProt P21709)
[40] = biological target: NTRK3 (human) (UniProt Q16288)

Chain of PRKD1 (human) (Q15139 whole entry, looked up): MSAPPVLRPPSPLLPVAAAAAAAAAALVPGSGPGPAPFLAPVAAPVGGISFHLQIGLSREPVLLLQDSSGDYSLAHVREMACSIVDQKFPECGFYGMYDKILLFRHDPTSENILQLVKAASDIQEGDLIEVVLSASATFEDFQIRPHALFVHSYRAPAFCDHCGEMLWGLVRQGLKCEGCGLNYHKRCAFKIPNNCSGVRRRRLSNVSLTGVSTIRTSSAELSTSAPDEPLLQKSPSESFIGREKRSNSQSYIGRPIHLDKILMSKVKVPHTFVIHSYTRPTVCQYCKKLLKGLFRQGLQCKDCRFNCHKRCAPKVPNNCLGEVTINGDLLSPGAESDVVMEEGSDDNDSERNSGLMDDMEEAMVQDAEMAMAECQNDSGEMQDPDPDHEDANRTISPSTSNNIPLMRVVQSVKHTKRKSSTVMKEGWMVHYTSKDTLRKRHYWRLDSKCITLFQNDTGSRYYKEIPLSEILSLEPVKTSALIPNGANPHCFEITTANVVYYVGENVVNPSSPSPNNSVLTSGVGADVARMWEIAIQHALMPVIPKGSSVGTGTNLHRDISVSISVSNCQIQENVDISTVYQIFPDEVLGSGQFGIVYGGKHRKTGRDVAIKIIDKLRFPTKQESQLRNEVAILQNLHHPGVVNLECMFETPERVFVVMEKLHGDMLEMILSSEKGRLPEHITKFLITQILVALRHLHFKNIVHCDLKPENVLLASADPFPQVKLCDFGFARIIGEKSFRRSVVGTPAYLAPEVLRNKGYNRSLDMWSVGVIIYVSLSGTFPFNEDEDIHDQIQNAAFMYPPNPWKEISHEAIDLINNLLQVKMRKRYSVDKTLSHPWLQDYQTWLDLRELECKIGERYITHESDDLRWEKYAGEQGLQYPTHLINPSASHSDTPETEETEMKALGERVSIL
Chain of CSNK1G3 (human) (Q9Y6M4 whole entry, looked up): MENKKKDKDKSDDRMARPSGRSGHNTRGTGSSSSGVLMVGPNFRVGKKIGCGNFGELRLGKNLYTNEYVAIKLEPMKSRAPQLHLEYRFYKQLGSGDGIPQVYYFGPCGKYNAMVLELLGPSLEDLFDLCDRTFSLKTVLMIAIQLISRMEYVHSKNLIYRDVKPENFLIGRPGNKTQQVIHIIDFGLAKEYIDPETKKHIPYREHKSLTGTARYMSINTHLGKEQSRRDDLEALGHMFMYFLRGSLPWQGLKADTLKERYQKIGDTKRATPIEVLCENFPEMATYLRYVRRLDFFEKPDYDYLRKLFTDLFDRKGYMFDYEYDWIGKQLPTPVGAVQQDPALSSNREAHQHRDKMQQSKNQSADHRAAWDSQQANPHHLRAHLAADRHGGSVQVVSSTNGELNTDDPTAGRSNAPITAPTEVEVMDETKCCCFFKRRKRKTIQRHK

Compound	kinase still bound, per cent of control [1]	kinase still bound, per cent of control [2]	kinase still bound, per cent of control [3]	kinase still bound, per cent of control [4]	kinase still bound, per cent of control [5]	kinase still bound, per cent of control [6]	kinase still bound, per cent of control [7]	kinase still bound, per cent of control [8]	kinase still bound, per cent of control [9]	kinase still bound, per cent of control [10]	kinase still bound, per cent of control [11]	kinase still bound, per cent of control [12]	kinase still bound, per cent of control [13]	kinase still bound, per cent of control [14]	kinase still bound, per cent of control [15]	kinase still bound, per cent of control [16]	kinase still bound, per cent of control [17]	kinase still bound, per cent of control [18]	kinase still bound, per cent of control [19]	kinase still bound, per cent of control [20]	also measured
O=c1[nH]c2ccccc2n1C1CCN(Cc2ccc(-c3nc4cc5[nH]cnc5cc4nc3-c3ccccc3)cc2)CC1	100%	93%	79%	93%	86%	100%	59%	81%	90%	95%	100%	59%	100%	58%	51%	84%	84%	100%	100%	100%	kinase still bound, per cent of control [21]: 86%; kinase still bound, per cent of control [22]: 47%; kinase still bound, per cent of control [23]: 85%; kinase still bound, per cent of control [24]: 80%; kinase still bound, per cent of control [25]: 77%; kinase still bound, per cent of control [26]: 100%; kinase still bound, per cent of control [27]: 100%; kinase still bound, per cent of control [28]: 72%; kinase still bound, per cent of control [29]: 100%; kinase still bound, per cent of control [30]: 100%; kinase still bound, per cent of control [31]: 100%; kinase still bound, per cent of control [32]: 86%; kinase still bound, per cent of control [33]: 87%; kinase still bound, per cent of control [34]: 79%; kinase still bound, per cent of control [35]: 60%; kinase still bound, per cent of control [36]: 86%; kinase still bound, per cent of control [37]: 69%; kinase still bound, per cent of control [38]: 100%; kinase still bound, per cent of control [39]: 100%; kinase still bound, per cent of control [40]: 98%
C=CC(=O)Nc1ccc(C(=O)c2sc(Nc3ccc(N4CCN(C)CC4)cc3OC)nc2N)cc1	84%	45%	4.2%	24%	39%	78%	32%	100%	0.15%	100%	100%	25%	26%	71%	84%	100%	100%	89%	86%	2.1%	kinase still bound, per cent of control [21]: 5.6%; kinase still bound, per cent of control [22]: 13%; kinase still bound, per cent of control [23]: 100%; kinase still bound, per cent of control [24]: 100%; kinase still bound, per cent of control [25]: 100%; kinase still bound, per cent of control [26]: 0.7%; kinase still bound, per cent of control [27]: 92%; kinase still bound, per cent of control [28]: 100%; kinase still bound, per cent of control [29]: 76%; kinase still bound, per cent of control [30]: 99%; kinase still bound, per cent of control [31]: 45%; kinase still bound, per cent of control [32]: 100%; kinase still bound, per cent of control [33]: 42%; kinase still bound, per cent of control [34]: 85%; kinase still bound, per cent of control [35]: 43%; kinase still bound, per cent of control [36]: 79%; kinase still bound, per cent of control [37]: 100%; kinase still bound, per cent of control [38]: 83%; kinase still bound, per cent of control [39]: 100%; kinase still bound, per cent of control [40]: 93%

Source: the kinase profiling compilation of Christmann-Franck et al. (2016)
